# Assay results from PubChem BioAssay AID1963959 (Molecular Pharmacology Branch, DTP, NCI, 2024).
# System: T-47D spheroids with HUVEC/MSC, viability
# Test: Anticancer human tumor T-47D cell line growth inhibition [PI3K];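 further: spheroids exposed to agents for seven days before reading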;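 on viability, T/C: percent of DMSO vehicle control luminescence so 100% = untreated growth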
# Details: for IC50: curve of first compound; for viability, T/C: stronger effect = lower value
# In short: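 Targeted small molecules plus PI3K inhibitors, half-log dose series from Cmax (default top 10 microM), were applied to heterotypic spheroids of cancer cells with HUVEC and MSCs. Viability indicated growth inhibition.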
# [1] = second compound 0.0316 µM, first compound 0.0316 µM
# [2] = second compound 0.0316 µM, first compound 0.1 µM
# [3] = second compound 0.0316 µM, first compound 0.316 µM
# [4] = second compound 0.0316 µM, first compound 1 µM
# [5] = second compound 0.0316 µM, first compound 3.16 µM
# [6] = second compound 0.0316 µM, first compound 10 µM
# [7] = second compound 0.1 µM, first compound 0.0316 µM
# [8] = second compound 0.1 µM, first compound 0.1 µM
# [9] = second compound 0.1 µM, first compound 0.316 µM
# [10] = second compound 0.1 µM, first compound 1 µM
# [11] = second compound 0.1 µM, first compound 3.16 µM
# [12] = second compound 0.1 µM, first compound 10 µM
# [13] = second compound 0.316 µM, first compound 0.0316 µM
# [14] = second compound 0.316 µM, first compound 0.1 µM
# [15] = second compound 0.316 µM, first compound 0.316 µM
# [16] = second compound 0.316 µM, first compound 1 µM
# [17] = second compound 0.316 µM, first compound 3.16 µM
# [18] = second compound 0.316 µM, first compound 10 µM
# [19] = second compound 1 µM, first compound 0.0316 µM
# [20] = second compound 1 µM, first compound 0.1 µM
# [21] = second compound 1 µM, first compound 0.316 µM
# [22] = second compound 1 µM, first compound 1 µM
# [23] = second compound 1 µM, first compound 3.16 µM
# [24] = second compound 1 µM, first compound 10 µM
# [25] = second compound 3.16 µM, first compound 0.0316 µM
# [26] = second compound 3.16 µM, first compound 0.1 µM
# [27] = second compound 3.16 µM, first compound 0.316 µM
# [28] = second compound 3.16 µM, first compound 1 µM
# [29] = second compound 3.16 µM, first compound 3.16 µM
# [30] = second compound 3.16 µM, first compound 10 µM
# [31] = second compound 10 µM, first compound 0.0316 µM
# [32] = second compound 10 µM, first compound 0.1 µM
# [33] = second compound 10 µM, first compound 0.316 µM
# [34] = second compound 10 µM, first compound 1 µM
# [35] = second compound 10 µM, first compound 3.16 µM
# [36] = second compound 10 µM, first compound 10 µM
compound,measurement,setting,value
C=CC(=O)N1CCN(c2nc(=O)n(-c3c(C)ccnc3C(C)C)c3nc(-c4c(O)cccc4F)c(F)cc23)C(C)C1 (stereo not given) + Cc1nc(NC(=O)N2CCCC2C(N)=O)sc1-c1ccnc(C(C)(C)C(F)(F)F)c1,IC50,second compound 0.0316 µM,> 10 µM
same,IC50,second compound 0.1 µM,> 10 µM
same,IC50,second compound 0.316 µM,> 10 µM
same,IC50,second compound 1 µM,> 10 µM
same,IC50,second compound 3.16 µM,> 10 µM
same,IC50,second compound 10 µM,< 0.0316 µM
same,"viability, T/C",[1],112%
same,"viability, T/C",[2],92.4%
same,"viability, T/C",[3],102%
same,"viability, T/C",[4],84.8%
same,"viability, T/C",[5],88.8%
same,"viability, T/C",[6],98.5%
same,"viability, T/C",[7],105%
same,"viability, T/C",[8],89.7%
same,"viability, T/C",[9],97.2%
same,"viability, T/C",[10],77.8%
same,"viability, T/C",[11],116%
same,"viability, T/C",[12],106%
same,"viability, T/C",[13],83.8%
same,"viability, T/C",[14],96%
same,"viability, T/C",[15],86.7%
same,"viability, T/C",[16],99%
same,"viability, T/C",[17],91.5%
same,"viability, T/C",[18],99.4%
same,"viability, T/C",[19],96.1%
same,"viability, T/C",[20],98%
same,"viability, T/C",[21],84.1%
same,"viability, T/C",[22],100%
same,"viability, T/C",[23],99.4%
same,"viability, T/C",[24],101%
same,"viability, T/C",[25],65.1%
same,"viability, T/C",[26],77.5%
same,"viability, T/C",[27],77.9%
same,"viability, T/C",[28],75.9%
same,"viability, T/C",[29],85.4%
same,"viability, T/C",[30],95.3%
same,"viability, T/C",[31],37%
same,"viability, T/C",[32],36.7%
same,"viability, T/C",[33],41.2%
same,"viability, T/C",[34],45%
same,"viability, T/C",[35],53%
same,"viability, T/C",[36],59.5%
CC(C)NCC(C(=O)N1CCN(c2ncnc3c2C(C)CC3O)CC1)c1ccc(Cl)cc1 (stereo not given) + Cc1nc(NC(=O)N2CCCC2C(N)=O)sc1-c1ccnc(C(C)(C)C(F)(F)F)c1,IC50,second compound 0.0316 µM,> 10 µM
same,IC50,second compound 0.1 µM,7.98 µM
same,IC50,second compound 0.316 µM,> 10 µM
same,IC50,second compound 1 µM,2.12 µM
same,IC50,second compound 3.16 µM,0.585 µM
same,IC50,second compound 10 µM,< 0.0316 µM
same,"viability, T/C",[1],85.2%
same,"viability, T/C",[2],79.7%
same,"viability, T/C",[3],84.6%
same,"viability, T/C",[4],61.1%
same,"viability, T/C",[5],58.1%
same,"viability, T/C",[6],55.3%
same,"viability, T/C",[7],93.5%
same,"viability, T/C",[8],86.4%
same,"viability, T/C",[9],81.1%
same,"viability, T/C",[10],62.6%
same,"viability, T/C",[11],58.1%
same,"viability, T/C",[12],47.7%
same,"viability, T/C",[13],88.7%
same,"viability, T/C",[14],87.8%
same,"viability, T/C",[15],73.1%
same,"viability, T/C",[16],66%
same,"viability, T/C",[17],49.8%
same,"viability, T/C",[18],55.5%
same,"viability, T/C",[19],81.9%
same,"viability, T/C",[20],82.5%
same,"viability, T/C",[21],79.1%
same,"viability, T/C",[22],62.7%
same,"viability, T/C",[23],43.1%
same,"viability, T/C",[24],40.3%
same,"viability, T/C",[25],57.5%
same,"viability, T/C",[26],57.5%
same,"viability, T/C",[27],56.7%
same,"viability, T/C",[28],44.1%
same,"viability, T/C",[29],37%
same,"viability, T/C",[30],37.2%
same,"viability, T/C",[31],37.4%
same,"viability, T/C",[32],32.9%
same,"viability, T/C",[33],34.6%
same,"viability, T/C",[34],27%
same,"viability, T/C",[35],22.1%
same,"viability, T/C",[36],28.6%
CCN1CCN(Cc2ccc(Nc3ncc(F)c(-c4cc(F)c5nc(C)n(C(C)C)c5c4)n3)nc2)CC1 + Cc1nc(NC(=O)N2CCCC2C(N)=O)sc1-c1ccnc(C(C)(C)C(F)(F)F)c1,IC50,second compound 0.0316 µM,> 1 µM
same,IC50,second compound 0.1 µM,> 1 µM
same,IC50,second compound 0.316 µM,> 1 µM
same,IC50,second compound 1 µM,> 1 µM
same,IC50,second compound 3.16 µM,0.00856 µM
same,IC50,second compound 10 µM,< 0.00316 µM
same,"viability, T/C","second compound 0.0316 µM, first compound 0.00316 µM",111%
same,"viability, T/C","second compound 0.0316 µM, first compound 0.01 µM",87.8%
same,"viability, T/C",[1],89%
same,"viability, T/C",[2],85%
same,"viability, T/C",[3],80.9%
same,"viability, T/C",[4],92.7%
same,"viability, T/C","second compound 0.1 µM, first compound 0.00316 µM",100%
same,"viability, T/C","second compound 0.1 µM, first compound 0.01 µM",73.7%
same,"viability, T/C",[7],82.1%
same,"viability, T/C",[8],72.3%
same,"viability, T/C",[9],80.7%
same,"viability, T/C",[10],85.2%
same,"viability, T/C","second compound 0.316 µM, first compound 0.00316 µM",96%
same,"viability, T/C","second compound 0.316 µM, first compound 0.01 µM",73.4%
same,"viability, T/C",[13],70.2%
same,"viability, T/C",[14],67%
same,"viability, T/C",[15],64.4%
same,"viability, T/C",[16],73.2%
same,"viability, T/C","second compound 1 µM, first compound 0.00316 µM",78.9%
same,"viability, T/C","second compound 1 µM, first compound 0.01 µM",64.5%
same,"viability, T/C",[19],55.9%
same,"viability, T/C",[20],51.9%
same,"viability, T/C",[21],58.9%
same,"viability, T/C",[22],70.3%
same,"viability, T/C","second compound 3.16 µM, first compound 0.00316 µM",61.2%
same,"viability, T/C","second compound 3.16 µM, first compound 0.01 µM",49.2%
same,"viability, T/C",[25],44.2%
same,"viability, T/C",[26],39.3%
same,"viability, T/C",[27],47.1%
same,"viability, T/C",[28],53.2%
same,"viability, T/C","second compound 10 µM, first compound 0.00316 µM",30.5%
same,"viability, T/C","second compound 10 µM, first compound 0.01 µM",26%
same,"viability, T/C",[31],24.5%
same,"viability, T/C",[32],27.2%
same,"viability, T/C",[33],33.1%
same,"viability, T/C",[34],38.6%
Cn1ncc(Cl)c1-c1cc(C(=O)NC(CN)Cc2cccc(F)c2)sc1Cl (stereo not given) + Cc1nc(NC(=O)N2CCCC2C(N)=O)sc1-c1ccnc(C(C)(C)C(F)(F)F)c1,IC50,second compound 0.0316 µM,> 10 µM
same,IC50,second compound 0.1 µM,> 10 µM
same,IC50,second compound 0.316 µM,> 10 µM
same,IC50,second compound 1 µM,> 10 µM
same,IC50,second compound 3.16 µM,> 10 µM
same,IC50,second compound 10 µM,< 0.0316 µM
same,"viability, T/C",[1],107%
same,"viability, T/C",[2],88.1%
same,"viability, T/C",[3],83.8%
same,"viability, T/C",[4],64.8%
same,"viability, T/C",[5],64.9%
same,"viability, T/C",[6],63.3%
same,"viability, T/C",[7],88.8%
same,"viability, T/C",[8],93.2%
same,"viability, T/C",[9],80.3%
same,"viability, T/C",[10],60%
same,"viability, T/C",[11],55.8%
same,"viability, T/C",[12],65.3%
same,"viability, T/C",[13],88.1%
same,"viability, T/C",[14],69.8%
same,"viability, T/C",[15],75%
same,"viability, T/C",[16],57.8%
same,"viability, T/C",[17],60.7%
same,"viability, T/C",[18],66.8%
same,"viability, T/C",[19],70%
same,"viability, T/C",[20],75.9%
same,"viability, T/C",[21],67.7%
same,"viability, T/C",[22],53.9%
same,"viability, T/C",[23],64.6%
same,"viability, T/C",[24],65.3%
same,"viability, T/C",[25],58.5%
same,"viability, T/C",[26],59.4%
same,"viability, T/C",[27],48.9%
same,"viability, T/C",[28],49.7%
same,"viability, T/C",[29],43.9%
same,"viability, T/C",[30],61.8%
same,"viability, T/C",[31],35.1%
same,"viability, T/C",[32],30%
same,"viability, T/C",[33],33.3%
same,"viability, T/C",[34],32.1%
same,"viability, T/C",[35],39.7%
same,"viability, T/C",[36],50.5%
Cn1nccc1Nc1nccc(-c2ccn(C(CO)c3ccc(Cl)c(F)c3)c(=O)c2)n1 (stereo not given) + Cc1nc(NC(=O)N2CCCC2C(N)=O)sc1-c1ccnc(C(C)(C)C(F)(F)F)c1,IC50,second compound 0.0316 µM,> 10 µM
same,IC50,second compound 0.1 µM,> 10 µM
same,IC50,second compound 0.316 µM,> 10 µM
same,IC50,second compound 1 µM,> 10 µM
same,IC50,second compound 3.16 µM,> 10 µM
same,IC50,second compound 10 µM,< 0.0316 µM
same,"viability, T/C",[1],99.1%
same,"viability, T/C",[2],81.6%
same,"viability, T/C",[3],92.6%
same,"viability, T/C",[4],102%
same,"viability, T/C",[5],103%
same,"viability, T/C",[6],96.3%
same,"viability, T/C",[7],111%
same,"viability, T/C",[8],95.2%
same,"viability, T/C",[9],98.8%
same,"viability, T/C",[10],89.4%
same,"viability, T/C",[11],117%
same,"viability, T/C",[12],85.7%
same,"viability, T/C",[13],86.8%
same,"viability, T/C",[14],93.3%
same,"viability, T/C",[15],97.6%
same,"viability, T/C",[16],101%
same,"viability, T/C",[17],104%
same,"viability, T/C",[18],92.4%
same,"viability, T/C",[19],85.4%
same,"viability, T/C",[20],92.7%
same,"viability, T/C",[21],86.6%
same,"viability, T/C",[22],88%
same,"viability, T/C",[23],110%
same,"viability, T/C",[24],82%
same,"viability, T/C",[25],65.9%
same,"viability, T/C",[26],70.8%
same,"viability, T/C",[27],73.5%
same,"viability, T/C",[28],83.3%
same,"viability, T/C",[29],76.9%
same,"viability, T/C",[30],70.8%
same,"viability, T/C",[31],39.5%
same,"viability, T/C",[32],39.9%
same,"viability, T/C",[33],41.7%
same,"viability, T/C",[34],42.9%
same,"viability, T/C",[35],46.4%
same,"viability, T/C",[36],48.7%
